Laboratory results as given in ChEMBL document CHEMBL2407004, “3-Acyl-5-hydroxybenzofuran derivatives as potential anti-estrogen breast cancer agents: a combined experimental and theoretical investigation” (Bioorg Med Chem Lett, 2013).
pIC50: −log10 of the molar value.

Tested on: MCF7
Assay: Antiproliferative activity against human MCF7 cells after 48 hrs by MTT assay
Format: functional, cell-based
Conditions: MCF7, 48 h

Row | SMILES | pIC50
1 | COc1cc2occ(C(=O)c3cccc(NC(C)=O)c3)c2cc1O | 4.37
2 | COc1cc2occ(C(=O)c3ccc(-c4ccccc4)cc3)c2cc1O | 2.78
3 | COc1cc2occ(C(=O)/C=C/c3cccc(Cl)c3)c2cc1O | 3.33
4 | O=C(/C=C/c1cccc(Cl)c1)c1coc2cc(F)c(O)cc12 | 3.19
5 | COc1cc2occ(C(=O)/C=C/c3ccccc3)c2cc1O | 3.78
6 | COc1ccc(/C=C/C(=O)c2coc3cc(F)c(O)cc23)cc1 | 3.09
7 | CC/C(=C(\c1ccccc1)c1ccc(OCCN(C)C)cc1)c1ccccc1 [TAMOXIFEN] | 4.91
8 | COc1cc2occ(C(=O)/C=C/c3ccc4c(c3)OCO4)c2cc1O | 2.68
